Measured values: patent US8815923B2, “Therapeutic compounds” (Allergan, Inc., priority 2007, dated 2014)

How the values were obtained:
Assay type in all cases: cell-based
alpha2B receptor = biological target: T1, alpha2B receptor (Homo sapiens, UniProt P18089); assay: RSAT assay, Alpha 2B; settings: for EC50: RSAT, transfected NIH-3T3 cells with Gq/i5, nd = not determinable at concentrations less than 10 micromolar; for Emax: read-out: Alpha 2B IA (intrinsic activity), in parentheses
T1 construct: expressed in transfected cells; host or cells: NIH-3T3
T1 sequence (P18089 1-450): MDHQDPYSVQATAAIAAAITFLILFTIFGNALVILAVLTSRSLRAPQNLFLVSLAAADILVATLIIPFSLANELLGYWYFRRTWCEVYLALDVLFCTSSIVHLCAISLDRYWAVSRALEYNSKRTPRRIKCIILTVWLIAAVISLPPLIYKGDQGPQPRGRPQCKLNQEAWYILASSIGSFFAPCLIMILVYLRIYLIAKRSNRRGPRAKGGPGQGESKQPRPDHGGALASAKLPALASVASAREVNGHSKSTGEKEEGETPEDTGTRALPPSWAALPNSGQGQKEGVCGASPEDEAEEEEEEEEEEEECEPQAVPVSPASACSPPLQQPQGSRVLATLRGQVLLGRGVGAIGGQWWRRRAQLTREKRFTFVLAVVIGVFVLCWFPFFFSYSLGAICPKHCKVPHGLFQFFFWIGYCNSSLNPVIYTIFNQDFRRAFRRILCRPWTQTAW
Description: (§1) Receptor Selection and Amplification Technology (RSAT) Assay
(§2) The RSAT assay measures a receptor-mediated loss of contact inhibition that results in selective proliferation of receptor-containing cells in a mixed population of confluent cells. The increase in cell number is assessed with an appropriate transfected marker gene such as β-galactosidase, the activity of which can be easily measured in a 96-well format. Receptors that activate the G protein, Gq, elicit this response. Alpha2 receptors, which normally couple to Gi, activate the RSAT response when coexpressed with a hybrid Gq protein that has a Gi receptor recognition domain, called Gq/i5.
(§3) NIH-3T3 cells are plated at a density of 2×10^6 cells in 15 cm dishes and maintained in Dulbecco's modified Eagle's medium supplemented with 10% calf serum. One day later, cells are cotransfected by calcium phosphate precipitation with mammalian expression plasmids encoding p-SV-β-galactosidase (5-10 μg), receptor (1-2 μg) and G protein (1-2 μg). 40 μg salmon sperm DNA may also be included in the transfection mixture. Fresh media is added on the following day and 1-2 days later, cells are harvested and frozen in 50 assay aliquots. Cells are thawed and 100 μl added to 100 μl aliquots of various concentrations of drugs in triplicate in 96-well dishes. Incubations continue 72-96 hr at 37° C. After washing with phosphate-buffered saline, β-galactosidase enzyme activity is determined by adding 200 μl of the chromogenic substrate (consisting of 3.5 mM o-nitrophenyl-β-D-galactopyranoside and 0.5% nonidet P-40 in phosphate buffered saline), incubating overnight at 30° C. and measuring optical density at 420 nm. The absorbance is a measure of enzyme activity, which depends on cell number and reflects a receptor-mediated cell proliferation. The efficacy or intrinsic activity is calculated as a ratio of the maximal effect of the drug to the maximal effect of a standard full agonist for each receptor subtype. Brimonidine, also called UK14304, the chemical structure of which is shown below, is used as the standard agonist for the alpha2A, alpha2B and alpha2C receptors. The EC50 is the concentration at which the drug effect is half of its maximal effect.
(§4) EC50 values are nanomolar. ND stands for “not determinable” at concentrations less than 10 micromolar. IA stands for “intrinsic activity.”

alpha2C receptor = biological target: T2, alpha2C receptor (Homo sapiens, UniProt P18825); assay: RSAT assay, Alpha 2C; settings: for EC50: RSAT, transfected NIH-3T3 cells with Gq/i5, nd = not determinable at concentrations less than 10 micromolar; for Emax: read-out: Alpha 2C IA (intrinsic activity), in parentheses
T2 construct: expressed in transfected cells; host or cells: NIH-3T3
T2 sequence (P18825 1-462): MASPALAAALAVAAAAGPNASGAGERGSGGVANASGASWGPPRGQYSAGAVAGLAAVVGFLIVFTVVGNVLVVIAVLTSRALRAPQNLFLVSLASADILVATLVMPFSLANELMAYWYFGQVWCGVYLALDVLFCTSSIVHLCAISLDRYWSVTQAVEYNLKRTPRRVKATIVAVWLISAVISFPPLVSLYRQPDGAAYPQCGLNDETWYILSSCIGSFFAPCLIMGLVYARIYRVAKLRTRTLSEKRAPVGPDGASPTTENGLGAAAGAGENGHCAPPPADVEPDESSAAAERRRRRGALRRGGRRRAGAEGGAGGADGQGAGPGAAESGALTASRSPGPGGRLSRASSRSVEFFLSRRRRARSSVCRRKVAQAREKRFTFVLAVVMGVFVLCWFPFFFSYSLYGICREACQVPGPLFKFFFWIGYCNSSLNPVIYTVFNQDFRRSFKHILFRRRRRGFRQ
Description: as §1, §2, §3, §4

alpha2A receptor = biological target: T3, alpha2A receptor (Homo sapiens, UniProt P08913); assay: RSAT assay, Alpha 2A; settings: for Emax: read-out: Alpha 2A IA (intrinsic activity), in parentheses
T3 construct: expressed in transfected cells; host or cells: NIH-3T3
T3 sequence (P08913 1-465): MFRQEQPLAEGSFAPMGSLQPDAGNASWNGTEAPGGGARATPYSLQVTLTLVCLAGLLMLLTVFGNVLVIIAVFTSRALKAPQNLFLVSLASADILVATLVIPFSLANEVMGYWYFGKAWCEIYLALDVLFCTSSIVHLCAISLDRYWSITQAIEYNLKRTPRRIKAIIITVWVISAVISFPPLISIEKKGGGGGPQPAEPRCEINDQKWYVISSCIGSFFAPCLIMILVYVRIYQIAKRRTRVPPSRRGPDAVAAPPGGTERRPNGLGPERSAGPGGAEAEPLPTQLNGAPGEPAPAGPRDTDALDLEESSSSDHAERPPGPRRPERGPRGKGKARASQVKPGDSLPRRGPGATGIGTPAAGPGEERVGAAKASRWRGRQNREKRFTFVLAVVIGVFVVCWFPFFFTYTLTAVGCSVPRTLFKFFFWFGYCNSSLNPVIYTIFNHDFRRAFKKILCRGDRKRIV
Description: as §1, §2, §3, §4

| SMILES | EC50 (alpha2B receptor) | Emax (alpha2B receptor) | EC50 (alpha2C receptor) | Emax (alpha2C receptor) | Emax (alpha2A receptor) | EC50 (alpha2A receptor; RSAT, transfected NIH-3T3 cells with Gq/i5, nd = not determinable at concentrations less than 10 micromolar) |
| --- | --- | --- | --- | --- | --- | --- |
| c1ccc2c(c1)CCC[C@@H]2NC1=NCCN1 [compound 323] | 49 nM | 102% | 308 nM | 42% | 12% |  |
| Cc1cc(C)c2c(c1)C(NC1=NCCN1)CCC2 (stereo not drawn) [compound 904, (4,5-Dihydro-1H-imidazol-2-yl)-(5,7-dimethyl-1,2,3,4-tetrahydro-naphthalen-1-yl)-amine] | 68 nM | 80% |  | 4% | 35% | 1620 nM |
| c1ccc2c(c1)CCCC2NC1=NCCN1 (stereo not drawn) [compound 639, (4,5-Dihydro-1H-imidazol-2-yl)-(1,2,3,4-tetrahydro-naphthalen-1-yl)amine] | 37 nM | 84% | 179 nM | 50% | 25% |  |
